From ChEMBL document CHEMBL1201862, “PubChem BioAssay data set” (2004)
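Compound exposure: 48 hours, 5 concentrations, 96-well plates. Here, GI50 denotes the concentration required for 50% inhibition of growth.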 Calls of active or inactive are those of the source. No stated cut-off is given here; in the data, active = GI50 up to about 1.1 µM and inactive = higher.

Columns and labels:
Assay in all cases: DTP human tumour cell line panel, 48 h
ACHN = system: ACHN
DLD-1 = system: DLD-1
HCC 2998 = system: HCC 2998
LXFL 529 = system: LXFL 529
M19-MEL = system: M19-MEL
NCI-H23 = system: NCI-H23
NCI-H460 = system: NCI-H460
OVCAR-4 = system: OVCAR-4
SK-MEL-28 = system: SK-MEL-28
SNB-78 = system: SNB-78
XF498 = system: XF498
A549 = system: A549
COLO 205 = system: COLO 205
KM-20L2 = system: KM-20L2
Hs-578T = system: Hs-578T
MDA-MB-231 = system: MDA-MB-231
MDA-N = system: MDA-N
NCI/ADR-RES = system: NCI/ADR-RES
PC-3 = system: PC-3
T47D = system: T47D

## Cc1cc(C)nc(NS(=O)(=O)c2ccc(NC(=O)c3cccc4c(Nc5ccc(S(=O)(=O)Nc6cc(C)on6)cc5)c5ccccc5nc34)cc2)n1
ACHN
  GI50: 38.6 µM (inactive)
DLD-1
  GI50: 30.1 µM (inactive)
HCC 2998
  GI50: 14.8 µM (inactive)
LXFL 529
  GI50: 16.1 µM (inactive)
M19-MEL
  GI50: 26 µM (inactive)
NCI-H23
  GI50: 18.3 µM (inactive)
NCI-H460
  GI50: 25.6 µM (inactive)
OVCAR-4
  GI50: 23.2 µM (inactive)
SK-MEL-28
  GI50: 20.7 µM (inactive)
SNB-78
  GI50: 41.7 µM (inactive)
XF498
  GI50: 21.1 µM (inactive)

## CC1(Br)S(=O)(=O)OCCOS1(=O)=O
A549
  GI50: > 100 µM (inactive)
ACHN
  GI50: > 100 µM (inactive)
COLO 205
  GI50: > 100 µM (inactive)
DLD-1
  GI50: > 100 µM (inactive)
HCC 2998
  GI50: > 100 µM (inactive)
KM-20L2
  GI50: > 100 µM (inactive)
LXFL 529
  GI50: > 100 µM (inactive)
M19-MEL
  GI50: > 100 µM (inactive)
NCI-H23
  GI50: > 100 µM (inactive)
NCI-H460
  GI50: > 100 µM (inactive)
OVCAR-4
  GI50: > 100 µM (inactive)
SK-MEL-28
  GI50: > 100 µM (inactive)
SNB-78
  GI50: > 100 µM (inactive)
XF498
  GI50: > 100 µM (inactive)

## COc1ccc2c(c1)OC(c1ccccc1O)CC2=O (centres undefined)
A549
  GI50: 40.6 µM (inactive)
ACHN
  GI50: 46.2 µM (inactive)
DLD-1
  GI50: 29 µM (inactive)
HCC 2998
  GI50: 48.9 µM (inactive)
KM-20L2
  GI50: > 100 µM (inactive)
LXFL 529
  GI50: 21.7 µM (inactive)
NCI-H23
  GI50: 28.7 µM (inactive)
NCI-H460
  GI50: 50.1 µM (inactive)
OVCAR-4
  GI50: 47.3 µM (inactive)
SK-MEL-28
  GI50: 48.2 µM (inactive)
SNB-78
  GI50: 26.5 µM (inactive)
XF498
  GI50: 40.7 µM (inactive)

## COc1ccc(NC(=O)C(=O)NNC(=O)c2sc(NNC(C)=O)nc2C)c([N+](=O)[O-])c1
A549
  GI50: > 100 µM (inactive)
ACHN
  GI50: 45.5 µM (inactive)
COLO 205
  GI50: > 100 µM (inactive)
HCC 2998
  GI50: > 100 µM (inactive)
KM-20L2
  GI50: > 100 µM (inactive)
LXFL 529
  GI50: 34.8 µM (inactive)
M19-MEL
  GI50: > 100 µM (inactive)
NCI-H23
  GI50: > 100 µM (inactive)
NCI-H460
  GI50: > 100 µM (inactive)
OVCAR-4
  GI50: 51.5 µM (inactive)
SK-MEL-28
  GI50: > 100 µM (inactive)
SNB-78
  GI50: > 100 µM (inactive)
XF498
  GI50: 71.3 µM (inactive)

## C#CCN(Cc1ccc2nc(-c3ccccc3)c(Cl)nc2c1)c1ccc(F)cc1
A549
  GI50: > 100 µM (inactive)
ACHN
  GI50: 71.9 µM (inactive)
COLO 205
  GI50: 51.3 µM (inactive)
HCC 2998
  GI50: > 100 µM (inactive)
Hs-578T
  GI50: > 100 µM (inactive)
MDA-MB-231
  GI50: > 100 µM (inactive)
MDA-N
  GI50: > 100 µM (inactive)
NCI-H23
  GI50: 71.6 µM (inactive)
NCI-H460
  GI50: > 100 µM (inactive)
NCI/ADR-RES
  GI50: > 100 µM (inactive)
OVCAR-4
  GI50: 59.8 µM (inactive)
PC-3
  GI50: > 100 µM (inactive)
SK-MEL-28
  GI50: > 100 µM (inactive)
T47D
  GI50: 38 µM (inactive)

## O=C(NC(Cc1ccc(Cl)cc1)C(=O)O)c1ccc(I)cc1 (centres undefined)
A549
  GI50: > 100 µM (inactive)
COLO 205
  GI50: > 100 µM (inactive)
DLD-1
  GI50: > 100 µM (inactive)
HCC 2998
  GI50: 3.42 µM (inactive)
M19-MEL
  GI50: > 100 µM (inactive)
NCI-H23
  GI50: > 100 µM (inactive)
NCI-H460
  GI50: > 100 µM (inactive)
NCI/ADR-RES
  GI50: > 100 µM (inactive)
OVCAR-4
  GI50: > 100 µM (inactive)
SK-MEL-28
  GI50: > 100 µM (inactive)
SNB-78
  GI50: > 100 µM (inactive)
XF498
  GI50: > 64.4 µM (inactive)

## CCOC(=O)C1(C#N)C(c2ccccc2)CC(O)(c2ccc(OC)cc2)C(C(=O)c2ccc(OC)cc2)C1c1ccccc1 (centres undefined)
A549
  GI50: > 100 µM (inactive)
ACHN
  GI50: > 100 µM (inactive)
COLO 205
  GI50: > 100 µM (inactive)
DLD-1
  GI50: > 100 µM (inactive)
HCC 2998
  GI50: > 100 µM (inactive)
KM-20L2
  GI50: > 100 µM (inactive)
LXFL 529
  GI50: > 100 µM (inactive)
M19-MEL
  GI50: > 100 µM (inactive)
NCI-H23
  GI50: > 100 µM (inactive)
NCI-H460
  GI50: > 100 µM (inactive)
OVCAR-4
  GI50: > 100 µM (inactive)
SK-MEL-28
  GI50: > 100 µM (inactive)
SNB-78
  GI50: > 100 µM (inactive)

## Brc1cc(CCOC2CCCCO2)c(-c2sccc2CCOC2CCCCO2)s1 (centres undefined)
A549
  GI50: 24.8 µM (inactive)
ACHN
  GI50: 50.8 µM (inactive)
COLO 205
  GI50: 43.4 µM (inactive)
HCC 2998
  GI50: 31.9 µM (inactive)
Hs-578T
  GI50: 13.9 µM (inactive)
MDA-MB-231
  GI50: > 100 µM (inactive)
MDA-N
  GI50: 40.3 µM (inactive)
NCI-H23
  GI50: 34.7 µM (inactive)
NCI-H460
  GI50: 33.4 µM (inactive)
NCI/ADR-RES
  GI50: 40.7 µM (inactive)
OVCAR-4
  GI50: 48 µM (inactive)
PC-3
  GI50: 42.2 µM (inactive)
SK-MEL-28
  GI50: > 95.1 µM (inactive)
T47D
  GI50: > 100 µM (inactive)

## Cn1c(=O)c(Cl)c(N=[N+]=[N-])c2ccccc21
A549
  GI50: 94.4 µM (inactive)
ACHN
  GI50: 85.7 µM (inactive)
COLO 205
  GI50: > 100 µM (inactive)
HCC 2998
  GI50: > 100 µM (inactive)
Hs-578T
  GI50: > 100 µM (inactive)
MDA-MB-231
  GI50: 60.5 µM (inactive)
MDA-N
  GI50: 84.1 µM (inactive)
NCI-H23
  GI50: > 100 µM (inactive)
NCI-H460
  GI50: > 100 µM (inactive)
NCI/ADR-RES
  GI50: > 100 µM (inactive)
OVCAR-4
  GI50: 55.7 µM (inactive)
PC-3
  GI50: 78.7 µM (inactive)
SK-MEL-28
  GI50: > 100 µM (inactive)
T47D
  GI50: 64 µM (inactive)

## CCOC(=O)CCC1(C(=O)OCC)CCCCC1=O (centres undefined)
A549
  GI50: > 100 µM (inactive)
ACHN
  GI50: > 100 µM (inactive)
COLO 205
  GI50: > 100 µM (inactive)
DLD-1
  GI50: > 100 µM (inactive)
HCC 2998
  GI50: > 100 µM (inactive)
KM-20L2
  GI50: > 100 µM (inactive)
LXFL 529
  GI50: > 100 µM (inactive)
M19-MEL
  GI50: > 100 µM (inactive)
NCI-H23
  GI50: > 100 µM (inactive)
NCI-H460
  GI50: > 100 µM (inactive)
SK-MEL-28
  GI50: > 100 µM (inactive)
SNB-78
  GI50: > 100 µM (inactive)
XF498
  GI50: > 100 µM (inactive)

## C=CCNC(=O)N(CCC)CCCC(NC(C)=O)C(=O)NCc1ccccc1 (centres undefined)
A549
  GI50: > 100 µM (inactive)
ACHN
  GI50: > 100 µM (inactive)
COLO 205
  GI50: > 100 µM (inactive)
KM-20L2
  GI50: > 100 µM (inactive)
LXFL 529
  GI50: > 100 µM (inactive)
M19-MEL
  GI50: > 100 µM (inactive)
NCI-H23
  GI50: > 100 µM (inactive)
NCI-H460
  GI50: > 100 µM (inactive)
OVCAR-4
  GI50: > 100 µM (inactive)
SK-MEL-28
  GI50: > 100 µM (inactive)
XF498
  GI50: > 100 µM (inactive)

## CCOC(=O)Cc1cc(OC)c(OC)cc1/C(Cl)=C(\CO)c1ccc(OC)c(OC)c1
A549
  GI50: > 100 µM (inactive)
ACHN
  GI50: 81.1 µM (inactive)
COLO 205
  GI50: > 100 µM (inactive)
DLD-1
  GI50: > 100 µM (inactive)
KM-20L2
  GI50: > 100 µM (inactive)
M19-MEL
  GI50: > 100 µM (inactive)
NCI-H23
  GI50: 97.7 µM (inactive)
NCI-H460
  GI50: > 100 µM (inactive)
OVCAR-4
  GI50: 44.4 µM (inactive)
SK-MEL-28
  GI50: 78 µM (inactive)
SNB-78
  GI50: 59 µM (inactive)
XF498
  GI50: 16.9 µM (inactive)

## C=C(C)C1Cc2c(cc(O)c3c(=O)c4ccccc4n(C)c23)O1 (centres undefined)
A549
  GI50: 49.8 µM (inactive)
ACHN
  GI50: 40.9 µM (inactive)
COLO 205
  GI50: > 100 µM (inactive)
DLD-1
  GI50: 27.1 µM (inactive)
HCC 2998
  GI50: > 100 µM (inactive)
KM-20L2
  GI50: > 100 µM (inactive)
LXFL 529
  GI50: 34 µM (inactive)
NCI-H23
  GI50: 32.2 µM (inactive)
NCI-H460
  GI50: 43.5 µM (inactive)
OVCAR-4
  GI50: 9.93 µM (inactive)
SK-MEL-28
  GI50: > 100 µM (inactive)
SNB-78
  GI50: 35.6 µM (inactive)
XF498
  GI50: 23.8 µM (inactive)

## COc1cc(C2c3cc4c(cc3[C@@H](Nc3cccc(CO)c3)C3COC(=O)[C@H]23)OCO4)cc(OC)c1O (some centres undefined)
A549
  GI50: < 0.0281 µM (active)
COLO 205
  GI50: 1.54 µM (inactive)
DLD-1
  GI50: 1.43 µM (inactive)
HCC 2998
  GI50: 1.73 µM (inactive)
KM-20L2
  GI50: 0.766 µM (active)
M19-MEL
  GI50: 0.871 µM (active)
NCI-H23
  GI50: 0.375 µM (active)
NCI-H460
  GI50: < 0.01 µM (active)
NCI/ADR-RES
  GI50: 1.34 µM (inactive)
OVCAR-4
  GI50: 6.84 µM (inactive)
SK-MEL-28
  GI50: 2.24 µM (inactive)
XF498
  GI50: 0.154 µM (active)

## Nc1ncnc2c1ncn2C1C(O)C=C(CO)C1O (centres undefined)
A549
  GI50: > 625 µM (inactive)
COLO 205
  GI50: > 625 µM (inactive)
DLD-1
  GI50: > 625 µM (inactive)
HCC 2998
  GI50: > 625 µM (inactive)
KM-20L2
  GI50: > 625 µM (inactive)
M19-MEL
  GI50: > 625 µM (inactive)
NCI-H460
  GI50: > 625 µM (inactive)
NCI/ADR-RES
  GI50: > 625 µM (inactive)
OVCAR-4
  GI50: > 625 µM (inactive)
SNB-78
  GI50: > 625 µM (inactive)
XF498
  GI50: < 0.0625 µM (active)
